# Assay results published in ChEMBL document CHEMBL1212797, “Miltefosine efficiently eliminates Leishmania major amastigotes from infected murine dendritic cells without altering their immune functions” (Antimicrob Agents Chemother, 2010).
# Activity calls are given as the source filed them. The rule behind the calls is not given here.
# Assays:
# dendritic [1] = assay: Immunomodulatory effect in uninfected C57BL/6 mouse dendritic cells assessed as IL-12p40 production after 18 hrs by ELISA; assay type: functional, cell-based
# [2] = Induction of apoptosis in C57BL/6 mouse dendritic cell assessed as early apoptotic cells at 50uM after 18 hrs using annexin V-propidium iodide staining by flow cytometry; assay type: cell-based
# dendritic [3] = assay: Immunomodulatory effect in Leishmania major uninfected C57BL/6 mouse bone marrow dendritic cells assessed as CD40 expression at 5 to 50 uM after 18 hrs by flow cytometry; assay type: functional, cell-based
# [4] = Induction of apoptosis in C57BL/6 mouse dendritic cells assessed as early apoptotic cells at 50 uM after 72 hrs using annexin V-propidium iodide and annexin V staining by flow cytometry; assay type: cell-based
# dendritic [5] = assay: Immunomodulatory effect in uninfected C57BL/6 mouse dendritic cells assessed as IL-10 production after 18 hrs by ELISA; assay type: functional, cell-based
# [6] = Induction of apoptosis in C57BL/6 mouse dendritic cells assessed as necrotic cells at 5 uM after 72 hrs using annexin V-propidium iodide and annexin V staining by flow cytometry; assay type: cell-based
# Mus musculus [7] = assay: Immunomodulatory effect in Leishmania major infected C57BL/6 mouse assessed as levels of CD11c+ and MHC-2+ in dendritic cells at 200 ug administered topically measured after 48 hrs by FACS method; assay type: functional, organism-based
# dendritic [8] = assay: Immunomodulatory effect in uninfected C57BL/6 mouse dendritic cells assessed as IL-12p70 production after 18 hrs by ELISA; assay type: functional, cell-based
# [9] = Induction of apoptosis in C57BL/6 mouse dendritic cells assessed as early apoptotic cells at 5 uM after 72 hrs using annexin V-propidium iodide and annexin V staining by flow cytometry; assay type: cell-based
# dendritic [10] = assay: Immunomodulatory effect in Leishmania major infected C57BL/6 mouse dendritic cells assessed as IL-10 production after 18 hrs by ELISA; assay type: functional, cell-based
# dendritic [11] = assay: Immunomodulatory effect in Leishmania major uninfected C57BL/6 mouse bone marrow dendritic cells assessed as CD86 expression at 5 to 50 uM after 18 hrs by flow cytometry; assay type: functional, cell-based
# [12] = Induction of apoptosis in C57BL/6 mouse dendritic cells assessed as viable cells at 5 uM after 72 hrs using annexin V-propidium iodide and annexin V staining by flow cytometry; assay type: cell-based; conditions: read-out: Activity
# dendritic [13] = assay: Immunomodulatory effect in Leishmania major Leishmania major infected sC57BL/6 mouse bone marrow dendritic cells assessed as CD40 expression at 5 to 50 uM after 18 hrs by flow cytometry; assay type: functional, cell-based; conditions: C57BL/6
# dendritic [14] = assay: Immunomodulatory effect in Leishmania major uninfected C57BL/6 mouse bone marrow dendritic cells assessed as expression of MHC-2 at 5 to 50 uM after 18 hrs by flow cytometry; assay type: functional, cell-based
# [15] = Induction of apoptosis in C57BL/6 mouse dendritic cells assessed as […] viable cells at 25 uM after 18 hrs using annexin V-propidium iodide and annexin V staining by flow cytometry; assay type: cell-based; conditions: read-out: Activity
# [16] = Induction of apoptosis in C57BL/6 mouse dendritic cells assessed as late apoptotic cells at 25 uM after 72 hrs using annexin V-propidium iodide and annexin V staining by flow cytometry; assay type: cell-based
# [17] = Induction of apoptosis in C57BL/6 mouse dendritic cells assessed as early apoptotic cells at 5 uM after 18 hrs using annexin V-propidium iodide and annexin V staining by flow cytometry; assay type: cell-based
# [18] = Induction of apoptosis in C57BL/6 mouse dendritic cells assessed as viable cells at 5 uM after 18 hrs using annexin V-propidium iodide and annexin V staining by flow cytometry; assay type: cell-based; conditions: read-out: Activity
# dendritic [19] = assay: Immunomodulatory effect in Leishmania major infected C57BL/6 mouse dendritic cells assessed as IL-12p70 production after 18 hrs by ELISA; assay type: functional, cell-based
# dendritic [20] = assay: Effect on antigen specific CD4+ T cells expansion by Leishmania major amastigotes infected C57BL/6 mouse dendritic cells assessed as increase in [3H]thymidine incorporation at 50 uM after 72 hrs; assay type: functional, cell-based
# Homo sapiens = species: Homo sapiens; assay: Plasma concentration in leishmaniasis patient during last week of 4-week treatment course; assay type: ADME, organism-based; conditions: in vivo
# dendritic [21] = assay: Immunomodulatory effect in Leishmania major infected C57BL/6 mouse dendritic cells assessed as TNF-alpha production after 18 hrs by ELISA; assay type: functional, cell-based
# [22] = Induction of apoptosis in C57BL/6 mouse dendritic cells assessed as viable cells at 50 uM after 18 hrs using annexin V-propidium iodide and annexin V staining by flow cytometry; assay type: cell-based; conditions: read-out: Activity
# [23] = Induction of apoptosis in C57BL/6 mouse dendritic cells assessed as late apoptotic cells at 25 uM after 18 hrs using annexin V-propidium iodide and annexin V staining by flow cytometry; assay type: cell-based
# dendritic [24] = assay: Immunomodulatory effect in Leishmania major Leishmania major infected sC57BL/6 mouse bone marrow dendritic cells assessed as MHC-2 expression at 5 to 50 uM after 18 hrs by flow cytometry; assay type: functional, cell-based; conditions: C57BL/6
# [25] = Induction of apoptosis in C57BL/6 mouse dendritic cells assessed as late apoptotic cells at 50 uM after 72 hrs using annexin V-propidium iodide and annexin V staining by flow cytometry; assay type: cell-based
# [26] = Induction of apoptosis in C57BL/6 mouse dendritic cells assessed as necrotic cells at 50 uM after 72 hrs using annexin V-propidium iodide and annexin V staining by flow cytometry; assay type: cell-based
# dendritic [27] = assay: Immunomodulatory effect in Leishmania major infected C57BL/6 mouse dendritic cells assessed as IL-12p40 production after 18 hrs by ELISA; assay type: functional, cell-based
# [28] = Cytotoxicity against C57BL/6 mouse immature bone marrow-derived dendritic cells assessed as reduction of cell survival at >100 uM after 48 hrs by propidium iodide exclusion staining based flow cytometry
# dendritic [29] = assay: Immunomodulatory effect in uninfected C57BL/6 mouse dendritic cells assessed as TNF-alpha production after 18 hrs by ELISA; assay type: functional, cell-based
# dendritic [30] = assay: Immunomodulatory effect in Leishmania major Leishmania major infected sC57BL/6 mouse bone marrow dendritic cells assessed as CD54 expression at 5 to 50 uM after 18 hrs by flow cytometry; assay type: functional, cell-based; conditions: C57BL/6
# [31] = Cytotoxicity against C57BL/6 mouse immature bone marrow-derived dendritic cells at 5 uM after 72 to 96 hrs by propidium iodide exclusion staining based flow cytometry; assay type: cell-based
# dendritic [32] = assay: Induction of nitric oxide release in Leishmania major amastigotes infected C57BL/6 mouse dendritic cells assessed as nitrite production after 72 hrs; assay type: functional, cell-based
# dendritic [33] = assay: Immunomodulatory effect in Leishmania major uninfected C57BL/6 mouse bone marrow dendritic cells assessed as CD54 expression at 5 to 50 uM after 18 hrs by flow cytometry; assay type: functional, cell-based
# [34] = Induction of apoptosis in C57BL/6 mouse dendritic cells assessed as viable cells at 25 uM after 72 hrs using annexin V-propidium iodide and annexin V staining by flow cytometry; assay type: cell-based; conditions: read-out: Activity
# [35] = Induction of apoptosis in C57BL/6 mouse dendritic cells assessed as late apoptotic cells at 5 uM after 72 hrs using annexin V-propidium iodide and annexin V staining by flow cytometry; assay type: cell-based
# dendritic [36] = assay: Effect on antigen specific CD8+ T cells expansion by Leishmania major amastigotes infected C57BL/6 mouse dendritic cells assessed as increase in [3H]thymidine incorporation at 50 uM after 72 hrs; assay type: functional, cell-based
# [37] = Induction of apoptosis in C57BL/6 mouse dendritic cells assessed as necrotic cells at 25 uM after 72 hrs using annexin V-propidium iodide and annexin V staining by flow cytometry; assay type: cell-based
# Mus musculus [38] = assay: Immunomodulatory effect in Leishmania major infected C57BL/6 mouse assessed as levels of CD11c+ and MHC-2+ in dendritic cells at 20 ug administered topically measured after 48 hrs by FACS method; assay type: functional, organism-based
# [39] = Induction of apoptosis in C57BL/6 mouse dendritic cells assessed as early apoptotic cells at 50 uM after 18 hrs using annexin V-propidium iodide and annexin V staining by flow cytometry; assay type: cell-based
# [40] = Induction of apoptosis in C57BL/6 mouse dendritic cells assessed as early apoptotic cells at 25 uM after 18 hrs using annexin V-propidium iodide and annexin V staining by flow cytometry; assay type: cell-based
# [41] = Induction of apoptosis in C57BL/6 mouse dendritic cells assessed as viable cells at 50 uM after 72 hrs using annexin V-propidium iodide and annexin V staining by flow cytometry; assay type: cell-based; conditions: read-out: Activity
# [42] = Induction of apoptosis in C57BL/6 mouse dendritic cells assessed as necrotic cells at 50 uM after 18 hrs using annexin V-propidium iodide and annexin V staining by flow cytometry; assay type: cell-based
# Leishmania major = assay: Antileishmenia activity against Leishmania major amastigotes infected in C57BL/6 mouse dendritic cells assessed as decrease in intracellular parasite amastigotes level at 50 uM by light microscopy; assay type: functional, organism-based
# [43] = Induction of apoptosis in C57BL/6 mouse dendritic cells assessed as late apoptotic cells at 5 uM after 18 hrs using annexin V-propidium iodide and annexin V staining by flow cytometry; assay type: cell-based
# [44] = Induction of apoptosis in C57BL/6 mouse dendritic cells assessed as necrotic cells at 25 uM after 18 hrs using annexin V-propidium iodide and annexin V staining by flow cytometry; assay type: cell-based
# [45] = Induction of apoptosis in C57BL/6 mouse dendritic cells assessed as late apoptotic cells at 50 uM after 18 hrs using annexin V-propidium iodide and annexin V staining by flow cytometry; assay type: cell-based
# [46] = Induction of apoptosis in C57BL/6 mouse dendritic cells assessed as necrotic cells at 5 uM after 18 hrs using annexin V-propidium iodide and annexin V staining by flow cytometry; assay type: cell-based
# dendritic [47] = assay: Immunomodulatory effect in Leishmania major Leishmania major infected sC57BL/6 mouse bone marrow dendritic cells assessed as CD86 expression at 5 to 50 uM after 18 hrs by flow cytometry; assay type: functional, cell-based; conditions: C57BL/6
smiles,measurement,setting,value
CCCCCCCCCCCCCCCCOP(=O)([O-])OCC[N+](C)(C)C [MILTEFOSINE],Activity,dendritic [1],inactive
same,Activity,[2],43.18%
same,Activity,dendritic [3],inactive
same,Activity,[4],21.16%
same,Activity,dendritic [5],inactive
same,Activity,[6],5.16%
same,Activity,Mus musculus [7],inactive
same,Activity,dendritic [8],inactive
same,Activity,[9],23.15%
same,Activity,dendritic [10],inactive
same,Activity,dendritic [11],inactive
same,"viability at 72 h, 5 µM",[12],36%
same,Activity,dendritic [13],inactive
same,Activity,dendritic [14],inactive
same,"viability at 18 h, 25 µM",[15],58.4%
same,Activity,[16],22.72%
same,Activity,[17],20.7%
same,"viability at 18 h, 5 µM",[18],84%
same,Activity,dendritic [19],inactive
same,Activity,dendritic [20],inactive
same,Cp,Homo sapiens,30800 ng/mL
same,Activity,dendritic [21],inactive
same,"viability at 18 h, 50 µM",[22],51.7%
same,Activity,[23],15.89%
same,Activity,dendritic [24],inactive
same,Activity,[25],54.56%
same,Activity,[26],6.56%
same,Activity,dendritic [27],inactive
same,Activity,[28],Toxic
same,Activity,dendritic [29],inactive
same,Activity,dendritic [30],inactive
same,Activity,[31],Active
same,Activity,dendritic [32],inactive
same,Activity,dendritic [33],inactive
same,"viability at 72 h, 25 µM",[34],28.9%
same,Activity,[35],35.67%
same,Activity,dendritic [36],inactive
same,Activity,[37],6.2%
same,Activity,Mus musculus [38],inactive
same,Activity,[39],23.15%
same,Activity,[40],19.91%
same,"viability at 72 h, 50 µM",[41],17.7%
same,Activity,[42],6.6%
same,inhibition,Leishmania major,Dose-dependent effect
same,Activity,[43],11.41%
same,Activity,[44],5.83%
same,Activity,[45],18.57%
same,Activity,[46],3.91%
same,Activity,dendritic [47],inactive
